{
  "source": "patent US8371378B2",
  "about": "“Method for pre-treatment of subterranean sites adjacent to water injection wells” (E. I. du Pont de Nemours and Company, priority 2010, dated 2013)",
  "key": {"[1]": {"assay": "Titration of sand/amine/brine mixture with 10% nitric acid, amine in solution by GC (Example 4)", "conditions": "core sand, brine #2, 10 wt % nitric acid", "procedure": "(§1) Concentration of amines, in media and water, were analyzed by gas chromatography (GC). An Agilent Model 5890 (Agilent, Wilmington, Del.), GC equipped with a […] and a split/splitless injector, a DB-FFAP column (30 meter length×0.32 millimeter (mm) depth×0.25 micrometer particle size). […] The system was calibrated using a sample of N,N-Dimethyl-1-Dodecaneamine (Aldrich). Helium was used as the carrier gas. A temperature gradient of 50 degrees Celsius (° C.) to 250° C. at 30° C. increase per minute (min) was used. Retention times (in minutes, min) for various chemicals of interest included: N,N-Dimethyl-1-Dodecaneamine (8.08 min); N,N-Dimethyl-1-Tetradecaneamine (8.85 min); N,N-Dimethyl-1-Hexadecane-amine (9.90 min); N,N-Dimethyl-1-Octadecaneamine (10.26 min) and N-Methyl,N-Benzyl)-1-Tetradecaneamine (11.40 min).\nThe procedure outlined in Example 2 was used to produce the sand/amine mixture except that 519 mg of the amine, 10 gr of Pentane. and 60.062 gr of sand from the Oa and Ob layers were used. 29.065 gr of this sand/amine mixture was added to 100 ml of brine #2 (Table 3) to create the sand/amine/brine mixture. […] 0.1 ml of 10 weight percent (wt %) nitric acid in water was added to this solution, and the pH and the amine concentration were measured again."}, "[2]": {"assay": "Titration of amine coated core sand in brine #2 with 1N HCl, amine in solution by GC (Example 2)", "assay_type": "physicochemical", "conditions": "brine #2, 1N HCl", "procedure": "Helium was used as the carrier gas.\n38 milligrams (mg) of N N-Dimethyl-1-Dodecanamine (hereafter referred to as “the amine”) was added to 10.210 gr of Pentane. This solution was added to 10.1845 gr of specific sand layers (Oa and Ob) obtained from the Schrader Bluff formation of the Milne Point Unit of the Alaskan North slope. The oil content of the sand was first removed using a mixture of methanol and toluene (50/50, volume/volume) as solvent washes. The solvent mixture was subsequently evaporated off the core sand to produce clean, dry, flowable core sand. This sand was mixed with the amine and pentane solution to produce a slurry. This slurry was thoroughly mixed and the pentane was evaporated off leaving the amine on the sand (hereafter referred to as sand/amine mixture). 100 ml of brine #2 (Table 3) was added to the sand/amine mixture to create the sand/amine/brine mixture. […] The fact that the amine was not detected underlined its strong binding to the sand particles. […] The data underlines the remarkable efficiency of an acid at ionizing and removing the amine from the sand."}, "[3]": {"assay": "Titration of sand/amine/brine mixture with 10% acetic acid, amine in solution by GC (Example 5)", "conditions": "core sand, brine #2, 10 wt % acetic acid", "procedure": "as §1\nThe same procedure outlined in Example 4 was repeated here to produce the sand/amine mixture. 30.85 grams (gr) of the sand/amine mixture was added to 100 ml of brine #2 (Table 3) to create the sand/amine/brine mixture."}},
  "data": [
    {"smiles": "CCCCCCCCCCCCN(C)C", "note": "[N-N-dimethyl-1-dodeanamine, N N-Dimethyl-1-Dodecanamine]", "values": [
      {"measurement": "pH of complete ionization and solubilization in the water of the amine", "setting": "[1]", "value": "< 6.7", "unit": "pH"},
      {"measurement": "pH of complete ionization and solubilization of the amine in the water", "setting": "[2]", "value": "< 6.0", "unit": "pH"},
      {"measurement": "pH of complete ionization and solubilization in the water of the amine", "setting": "[3]", "value": "< 6.7", "unit": "pH"}
    ]}
  ]
}
